In patent publication US20230019236A1, “PROTEIN TYROSINE PHOSPHATASE INHIBITORS AND METHODS OF USE THEREOF” (Calico Life Sciences LLC, priority 2019, published 2023):

biological target: T1, His tagged full-length PTP1B protein (Homo sapiens, UniProt P18031); assay: Mobility Shift Assay (MSA) used to determine potency of PTP1B inhibitors; format: biochemical; conditions: Table 2
T1 construct: made in house
T1 sequence (P18031 with tags, fused parts or gaps): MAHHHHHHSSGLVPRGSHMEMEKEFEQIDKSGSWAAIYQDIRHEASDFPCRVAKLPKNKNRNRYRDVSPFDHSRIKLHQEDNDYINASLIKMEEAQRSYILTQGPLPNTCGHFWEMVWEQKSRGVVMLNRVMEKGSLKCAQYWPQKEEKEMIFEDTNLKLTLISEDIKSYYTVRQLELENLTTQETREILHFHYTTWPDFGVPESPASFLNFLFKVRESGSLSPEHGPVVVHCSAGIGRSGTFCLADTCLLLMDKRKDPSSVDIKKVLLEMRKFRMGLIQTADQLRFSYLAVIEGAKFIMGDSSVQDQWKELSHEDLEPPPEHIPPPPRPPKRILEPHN
Method: The enzymatic assay used to determine activity is a mobility shift assay using a LabChip EZ Reader by Caliper Life Sciences. The enzymatic reaction was carried out in assay buffer (50 mM HEPES pH 7.5, 1 mM EGTA, 10 mM EDTA, 0.01% Tween® 20, and 2 mM DTT). […] The enzyme (at 0.5 nM) was incubated with compound for 10 minutes at room temperature. […] The % inhibition was then used to calculate the IC50 values.

First: O=C1CN(c2c(O)cc3ccc(C4CCS(=O)(=O)CC4)cc3c2F)S(=O)(=O)N1 [Compound 248, 5-[7-(1,1-dioxo-1λ^6-thian-4-yl)-1-fluoro-3-hydroxynaphthalen-2-yl]-1λ^6,2,5-thiadiazolidine-1,1,3-trione]
Second: O=C1CN(c2c(O)cc3ccc(C4CN(S(=O)(=O)C5CC5)C4)cc3c2F)S(=O)(=O)N1 [Compound 206, 5-{7-[1-(cyclopropanesulfonyl)azetidin-3-yl]-1-fluoro-3-hydroxynaphthalen-2-yl}-1λ^6,2,5-thiadiazolidine-1,1,3-trione]
The IC50 of the first is higher: greater than 100 nM for the first, 1 to 10 nM for the second.

First: O=C1CN(c2c(O)cc3ccc(/C=C/C4CC4)cc3c2F)S(=O)(=O)N1 [Compound 239, 5-{7-[(E)-2-cyclopropylethenyl]-1-fluoro-3-hydroxynaphthalen-2-yl}-1λ^6,2,5-thiadiazolidine-1,1,3-trione]
Second: N#C/C=C/c1ccc2cc(O)c(N3CC(=O)NS3(=O)=O)c(F)c2c1 [Compound 208, (2E)-3-[8-fluoro-6-hydroxy-7-(1,1,4-trioxo-1λ^6,2,5-thiadiazolidin-2-yl)naphthalen-2-yl]prop-2-enenitrile]
The IC50 of the first is lower: 10 to 100 nM for the first, greater than 100 nM for the second. The first is the more potent here.

First: O=C1CN(c2c(O)cc3ccc(C4=CCOC4)cc3c2F)S(=O)(=O)N1 [Compound 263, 5-[7-(2,5-dihydrofuran-3-yl)-1-fluoro-3-hydroxynaphthalen-2-yl]-1λ^6,2,5-thiadiazolidine-1,1,3-trione]
Second: O=C1CN(c2c(O)cc3ccc(C4=CCN(CC5CC5)C4)cc3c2F)S(=O)(=O)N1 [Compound 242, 5-{7-[1-(cyclopropylmethyl)-2,5-dihydro-1H-pyrrol-3-yl]-1-fluoro-3-hydroxynaphthalen-2-yl}-1λ^6,2,5-thiadiazolidine-1,1,3-trione]
The IC50 of the first is higher: 10 to 100 nM for the first, 1 to 10 nM for the second. The second is the more potent here.

First: CC(C)C/C=C/c1ccc2cc(O)c(N3CC(=O)NS3(=O)=O)c(F)c2c1 [Compound 240, 5-{1-fluoro-3-hydroxy-7-[(1E)-4-methylpent-1-en-1-yl]naphthalen-2-yl}-1λ^6,2,5-thiadiazolidine-1,1,3-trione]
Second: N#CCCCNc1ccc2cc(O)c(N3CC(=O)NS3(=O)=O)c(F)c2c1 [Compound 174, 4-{[8-fluoro-6-hydroxy-7-(1,1,4-trioxo-1λ^6,2,5-thiadiazolidin-2-yl)naphthalen-2-yl]amino}butanenitrile]
The IC50 of the first is lower: 1 to 10 nM for the first, greater than 100 nM for the second.

First: CCOCCCOc1ccc2cc(O)c(N3CC(=O)NS3(=O)=O)c(F)c2c1 [Compound 216, 5-[7-(3-ethoxypropoxy)-1-fluoro-3-hydroxynaphthalen-2-yl]-1λ^6,2,5-thiadiazolidine-1,1,3-trione]
Second: O=C1CN(c2c(O)cc3ccc(OCC4CC(F)(F)C4)cc3c2F)S(=O)(=O)N1 [Compound 235, 5-{7-[(3,3-difluorocyclobutyl)methoxy]-1-fluoro-3-hydroxynaphthalen-2-yl}-1λ^6,2,5-thiadiazolidine-1,1,3-trione]
The IC50 of the first is higher: 1 to 10 nM for the first, less than 1 nM for the second.

Compared with `CC(C)(C)CCNc1ccc2cc(O)c(N3CC(=O)NS3(=O)=O)c(F)c2c1` [Compound 116, 5-{7-[(3,3-dimethylbutyl)amino]-1-fluoro-3-hydroxynaphthalen-2-yl}-1λ^6,2,5-thiadiazolidine-1,1,3-trione], `O=C1CN(c2c(O)cc3ccc(-c4cccnc4)cc3c2F)S(=O)(=O)N1` [Compound 266, 5-[1-fluoro-3-hydroxy-7-(pyridin-3-yl)naphthalen-2-yl]-1λ^6,2,5-thiadiazolidine-1,1,3-trione] is higher in IC50: 10 to 100 nM for the first, greater than 100 nM for the second. The first is the more potent here.

`O=C1CN(c2c(O)cc3ccc(C4=CCN(S(=O)(=O)C5CC5)CC4)cc3c2F)S(=O)(=O)N1` [Compound 297, 5-{7-[1-(cyclopropanesulfonyl)-1,2,3,6-tetrahydropyridin-4-yl]-1-fluoro-3-hydroxynaphthalen-2-yl}-1λ^6,2,5-thiadiazolidine-1,1,3-trione] and `O=C1CN(c2c(O)cc3ccc(OCC4CCNCC4)cc3c2F)S(=O)(=O)N1` [Compound 114, 5-{1-fluoro-3-hydroxy-7-[(piperidin-4-yl)methoxy]naphthalen-2-yl}-1λ^6,2,5-thiadiazolidine-1,1,3-trione] fall in the same range of IC50: 1 to 10 nM for the first, 1 to 10 nM for the second.
